The values that follow come from article PMC10059999, “Assessment of Lipophilicity Parameters of Antimicrobial and Immunosuppressive Compounds” (Molecules, 2023).

Data set [1] in a line: RP-TLC determination of chromatographic lipophilicity parameter RMW (Soczewiński–Wachtmeister extrapolation to pure water). Format: physicochemical. The following applies: for RMW values, range: range over all plates (RP2F254, RP18F254, RP18WF254) and all mobile phases. As for the experimental part:
Thin-layer chromatography aluminum plates (20 cm × 20 cm, 0.25 mm) precoated with silica gel RP18F254, and glass plates coated with silica gel RP18WF254 (20 cm × 10 cm) and silica gel RP2F254 (10 cm × 10 cm) were obtained from Merck (Darmstadt, Germany).
The chromatographic analysis was carried out according to the procedure described earlier on RP-TLC plates (RP2F254, RP18F254, RP18WF254) as a stationary phase using three different mobile phases. Five microliters of standard solutions of analytes were spotted onto the chromatographic plates. The chromatographic chamber 20 cm × 10 cm (Camag, Switzerland) was saturated with the mobile phase vapors for 20 min. The mobile phases were prepared by mixing appropriate organic modifiers (ethanol, propan-2-ol, acetonitrile) and water in different volume compositions. The content of the organic modifier in the mobile phase used was changed in the step of 5% (v/v) in the range of 30–90% v/v. Thus, the mobile phases used consisted of a suitable organic solvent and water mixed in the following volume compositions: 30:70; 35:65; 40:60; 45:55; 50:50; […]; 60:40; 65:35; 70:30; 75:25; 80:20; 85:15 and 90:10. Chromatograms were developed at room temperature (21 ± 1 °C) to the solvent distance of 7 cm. Next, the chromatograms were dried for 24 h at (21 ± 1 °C) in a fume cupboard. The detection of the studied compounds was carried out under a UV lamp at 254 nm (Camag, Muttenz, Switzerland). The values of Rf (retardation factor) are the average values of three independent measurements in each case.

On the set-up of data set [2]: method as in ChemSpider / selleckchem.com. The following applies: ref ChemSpider / selleckchem.com, cited from earlier work; for Solubility in Water / logS: aqueous solubility.
On the set-up of data set [3]: method as in DrugBank. The following applies: n-octanol-water, ref DrugBank, cited from earlier work.
Where [4] appears, read: RP2F254 plates, acetonitrile-water mobile phase.
Where [5] appears, read: RP2F254 plates, ethanol–water mobile phase.
Where [6] appears, read: RP2F254 plates, propan-2-ol-water mobile phase.
Where [7] appears, read: RP18F254 plates, acetonitrile-water mobile phase.
The mark [8] stands for this setting: RP18F254 plates, ethanol–water mobile phase.
The mark [9] stands for this setting: RP18F254 plates, propan-2-ol-water mobile phase.
Setting [10] is: RP18WF254 plates, acetonitrile-water mobile phase.
The mark [11] stands for this setting: RP18WF254 plates, ethanol–water mobile phase.
[12] abbreviates: RP18WF254 plates, propan-2-ol-water mobile phase.

Converted amounts (≈) assume the structure as drawn. Where two headings read alike, the source gives them in different places.

With `CO[C@H]1C[C@@H]2CC[C@@H](C)[C@@](O)(O2)C(=O)C(=O)N2CCCC[C@H]2C(=O)O[C@H]([C@H](C)C[C@@H]2CC[C@H](n3cnnn3)[C@H](OC)C2)CC(=O)[C@H](C)/C=C(\C)[C@@H](O)[C@@H](OC)C(=O)[C@H](C)C[C@H](C)/C=C/C=C/C=C/1C` [Zotarolimus, zotarolimus], the RMW in data set [1] (setting [4]) is on record as 2.7480; in data set [1] (setting [5]) it was 3.3623; in data set [1] (setting [6]), 2.1522; in data set [1] (setting [7]), 3.1252; in data set [1] (setting [8]) it was 3.1105; in data set [1] (setting [9]), 2.4741. Further, the RMW in data set [1] (setting [10]) was 3.2300; in data set [1] (setting [11]), 2.7377; in data set [1] (setting [12]), 2.7821. Also, the “RMW values, range” value in data set [1] was 2.1522–3.3623.

For the compound `CC(=O)NC[C@H]1CN(c2ccc(N3CCSCC3)c(F)c2)C(=O)O1` [Sutezolid, sutezolid], the “Solubility in Water” value in data set [2] was 237 µg/mL (≈ 671 µM). For the same compound, in data set [2], the logS is −3.2. In addition, in data set [2], the “pKa (Strongest Acidic)” value was 14.85. The “pKa (Strongest Basic)” value in data set [2] is −0.14. Also, the RMW in data set [1] (setting [4]) is recorded as 1.4312; in data set [1] (setting [5]), 1.4334; in data set [1] (setting [6]), 1.1590; in data set [1] (setting [7]), 2.2114; in data set [1] (setting [8]), 1.8680; in data set [1] (setting [9]) it was 1.5937. Moreover, the RMW in data set [1] (setting [10]) is reported as 2.0329; in data set [1] (setting [11]), 1.9661; in data set [1] (setting [12]), 1.4784.

On to `CC(C)(O/N=C(\C(=O)N[C@@H]1C(=O)N2C(C(=O)[O-])=C(C[n+]3ccccc3)CS[C@H]12)c1csc(N)n1)C(=O)O` [Ceftazidime, ceftazidime], for which the “logPexp (Experimental Value)” value is −1.60 in data set [3] and −1.6 in data set [3] (listed as ceftazidime). Moreover, the “Solubility in Water” value in data set [2] was 5.73 µg/mL (≈ 10.5 µM). Besides, the logS in data set [2] was −5.0. The “pKa (Strongest Acidic)” value in data set [2] is on record as 2.42. Besides, in data set [2], the “pKa (Strongest Basic)” value is 4.02. The RMW in data set [1] (setting [4]) is on record as −0.0357; in data set [1] (setting [5]), −0.6643; in data set [1] (setting [6]), −0.3642; in data set [1] (setting [7]), 0.1462; in data set [1] (setting [8]) it was −2.9545; in data set [1] (setting [9]) it was 0.4691. The RMW is given as 0.4121 in data set [1] (setting [10]), 0.4152 in data set [1] (setting [11]) and 0.9153 in data set [1] (setting [12]). Moreover, the “RMW values, range on RP2F254” value in data set [1] (RP2F254 plates, range over the three mobile phases) is given as −0.0357 to −0.6643. Further, the “RMW values, range” value in data set [1] is reported as −2.9545 to 0.9153.

Turning to `Nc1nc(-n2cc(C(=O)O)c(=O)c3cc(F)c(N4CC(O)C4)c(Cl)c32)c(F)cc1F` [Delafloxacin, delafloxacin], in data set [2], the “Solubility in Water” value is 69.9 µg/mL (≈ 159 µM). In addition, the logS in data set [2] is −3.8. Further, the “pKa (Strongest Acidic)” value in data set [2] is given as 5.62. Further, the “pKa (Strongest Basic)” value in data set [2] is recorded as −1.3. For the same compound, the RMW in data set [1] (setting [4]) is reported as 0.6615; in data set [1] (setting [5]), 0.9184; in data set [1] (setting [6]), 0.7390; in data set [1] (setting [7]) it was 2.3174; in data set [1] (setting [8]) it was 2.1359; in data set [1] (setting [9]), 1.7719. The RMW is recorded as 1.8351 in data set [1] (setting [10]), 1.9694 in data set [1] (setting [11]) and 1.6940 in data set [1] (setting [12]).

As for `CO[C@H]1C[C@@H]2CC[C@@H](C)[C@@](O)(O2)C(=O)C(=O)N2CCCC[C@H]2C(=O)O[C@H]([C@H](C)C[C@@H]2CC[C@@H](OCCO)[C@H](OC)C2)CC(=O)[C@H](C)/C=C(\C)[C@@H](O)[C@@H](OC)C(=O)[C@H](C)C[C@H](C)/C=C/C=C/C=C/1C` [Everolimus, everolimus], the “Solubility in Water” value in data set [2] was 1.63 µg/mL (≈ 1.7 µM). The logS in data set [2] is recorded as −5.8. The “pKa (Strongest Acidic)” value in data set [2] is reported as 9.96. The “pKa (Strongest Basic)” value in data set [2] is given as −2.7. Besides, the RMW in data set [1] (setting [4]) is 2.8557; in data set [1] (setting [5]), 2.9460; in data set [1] (setting [6]) it was 2.2145; in data set [1] (setting [7]), 2.9462; in data set [1] (setting [8]), 3.5637; in data set [1] (setting [9]), 2.5865. Also, the RMW is reported as 2.7737 in data set [1] (setting [10]), 2.8227 in data set [1] (setting [11]) and 2.5687 in data set [1] (setting [12]). For the same compound, the “RMW values, range” value in data set [1] was 2.2145–3.5637.
